Drawing on ChEMBL document CHEMBL2046269, “Phthalide and isocoumarin derivatives produced by an Acremonium sp. isolated from a mangrove Rhizophora apiculata” (2012), this text covers MIC for one molecule.

The experiment relates to Candida albicans. Put plainly: Antifungal activity against Candida albicans NCPF 3153 after 15 hrs by colorimetric broth microdilution test. The experiment is classed as functional. Conditions: NCPF 3153, 15 h. On the technique in general: Broth dilution looks for growth in wells or tubes with falling amounts of substance.

In brackets after ≈: the same amount, converted by molar mass.

With `C[C@H]1CCC/C=C/[C@@H]2C[C@H](O)C[C@H]2[C@H](O)/C=C/C(=O)O1` [BREFELDIN A], the MIC (in general, the smallest concentration in the dilution series that meets the test's criterion for growth inhibition) amounted to 32 µg/mL (≈ 114 µM).
